Measured values taken from patent publication US10563263B2, “Genetic polymorphisms associated with statin response and cardiovascular diseases, methods of detection and uses thereof” (CELERA CORPORATION, priority 2010, dated 2020).

Tested on: CHD (fatal CHD, definite non-fatal MI, or revascularization)
Assay: CARE: SNP by pravastatin treatment interaction, logistic regression (synergy index), CHD endpoint
Format: in vivo, human
Details: for OR (synergy index, SNP by pravastatin treatment interaction): CARE; for OR (synergy index), CARE, Prava vs Placebo: CHD endpoint
From the text: CARE was a secondary prevention trial and WOSCOPS was a primary prevention trial.
The CHD endpoint was defined in the analyses herein of CARE as a composite endpoint of fatal CHD, definite non-fatal MI, or revascularization, and was defined in the analyses herein of WOSCOPS as a composite endpoint of death from CHD, nonfatal MI, or revascularization. In both the CARE and WOSCOPS analyses herein, the CVD endpoint was defined as a composite endpoint of CHD or stroke. […] Revascularization, which can include percutaneous transluminal coronary angioplasty (PTCA), stent placement, and coronary artery bypass graft (CABG), are medical interventions that indicate the presence of CHD.
Cohort and case-only study designs were used to identify SNPs associated with response to statin treatment.
For each SNP, a logistic regression model having treatment status as the dependent variable and SNP as the independent predictor variable was performed, with terms for age, sex and race included in the model as covariates. The anti-log of the regression coefficient corresponding to the SNP is an estimate of the synergy index (SI) (Davis et al., “Imputing gene-treatment interactions when the genotype distribution is unknown using case-only and putative placebo analyses-a new method for the Genetics of Hypertension Associated Treatment (GenHAT) study”, Statistics in Medicine 23: (2004), pages 2413-2427). The SI is a ratio of odds ratios: for example in the CARE and WOSCOPS studies, the SI represents the factor by which the odds-ratio of statin treatment, compared with placebo, among major homozygous individuals is multiplied by in order to obtain the odds-ratio of treatment vs. placebo among heterozygous individuals; and multiplied by a second time to obtain the odds-ratio of treatment vs. placebo in minor homozygous individuals. The case-only study design results in a valid estimate of the SI under the assumption that genotype and treatment are independent in the population. In a randomized clinical trial, genotype and treatment are independent by design. The p-value for the regression coefficient corresponding to the SNP results from a test of the null hypothesis that the regression coefficient is equal to zero (SI is equal to one) and thus small p-values indicate the SI is unlikely equal to one and that the effect of treatment likely differs by genotype.
A case-only study design was used to test whether the reduction of CHD events by statin therapy (for CARE and WOSCOPS studies) differed according to genotype (a treatment by SNP interaction) for each SNP evaluated in the study.

## CC[C@H](C)C(=O)O[C@H]1C[C@H](O)C=C2C=C[C@H](C)[C@H](CC[C@@H](O)C[C@@H](O)CC(=O)O)[C@H]21 [Pravastatin, pravastatin]
rs992695, Imputed, allele C, model ADD, NMISS 790, 95% CI 0.4976-0.8019
  OR (synergy index, SNP by pravastatin treatment interaction): 0.6317
rs992695, Imputed, allele C, model DOM, NMISS 790, 95% CI 0.4546-0.8068
  OR (synergy index, SNP by pravastatin treatment interaction): 0.6056
rs9881685, Imputed, allele A, model ADD, NMISS 799, 95% CI 0.3695-0.7488
  OR (synergy index, SNP by pravastatin treatment interaction): 0.526
rs9881685, Imputed, allele A, model DOM, NMISS 799, 95% CI 0.3327-0.7106
  OR (synergy index, SNP by pravastatin treatment interaction): 0.4862
rs9936999, Imputed, allele G, model DOM, NMISS 485, 95% CI 1.294-2.746
  OR (synergy index, SNP by pravastatin treatment interaction): 1.885
SNP rs198462 (A1 G, A2 A), rec model, Caseonly
  OR (synergy index), CARE, Prava vs Placebo: 1.57
SNP rs198476 (A1 G, A2 A), rec model, cohort
  OR (synergy index), CARE, Prava vs Placebo: 1.58
SNP rs471579 (A1 A, A2 C), add model, Caseonly
  OR (synergy index), CARE, Prava vs Placebo: 1.26
SNP rs1324012 (A1 A, A2 G), add model, Caseonly
  OR (synergy index), CARE, Prava vs Placebo: 0.78
SNP rs1917527 (A1 A, A2 C), rec model, Caseonly
  OR (synergy index), CARE, Prava vs Placebo: 0.34
SNP rs2768652 (A1 C, A2 T), add model, cohort
  OR (synergy index), CARE, Prava vs Placebo: 1.22
SNP rs6563805 (A1 A, A2 G), add model, cohort
  OR (synergy index), CARE, Prava vs Placebo: 0.76
SNP rs7873371 (A1 A, A2 G), add model, Caseonly
  OR (synergy index), CARE, Prava vs Placebo: 1.25
SNP rs12553453 (A1 C, A2 A), add model, cohort
  OR (synergy index), CARE, Prava vs Placebo: 1.22
SNP rs12635482 (A1 C, A2 A), rec model, cohort
  OR (synergy index), CARE, Prava vs Placebo: 0.54
rs1948 allele A vs G (ref), Source CaseOnly
  CARE OR: 1.52
rs151806 allele G vs A (ref), Source cohort
  CARE OR: 0.60
rs205279 allele A vs G (ref), Source Caseonly
  CARE OR: 1.94
rs238272 allele A vs G (ref), Source CaseOnly
  CARE OR: 1.44
rs312929 allele G vs A (ref), Source cohort
  CARE OR: 0.72
rs316720 allele G vs A (ref), Source cohort
  CARE OR: 0.67
rs331555 allele A vs C (ref), Source cohort
  CARE OR: 0.72
rs354342 allele A vs G (ref), Source Caseonly
  CARE OR: 0.70
rs453625, allele A1 A (non-ref), A2 G (ref), source cohort, endpoint/model not given
  CARE OR: 0.66
rs610118 allele G vs A (ref), Source cohort
  CARE OR: 0.43
rs669684 allele G vs A (ref), Source cohort
  CARE OR: 0.69
rs842796 allele A vs G (ref), Source cohort
  CARE OR: 1.72
rs886469 allele G vs A (ref), Source cohort
  CARE OR: 0.70
rs969356 allele G vs A (ref), Source cohort
  CARE OR: 0.69
rs1035618 allele A vs C (ref), Source Caseonly
  CARE OR: 1.38
rs1076733, allele A1 A (non-ref), A2 G (ref), source cohort, endpoint/model not given
  CARE OR: 0.70
rs1182878, allele A1 A (non-ref), A2 G (ref), source cohort, endpoint/model not given
  CARE OR: 0.79
rs1343563 allele C vs A (ref), Source cohort
  CARE OR: 0.61
rs1349282 allele A vs G (ref), Source cohort
  CARE OR: 0.55
rs1382787 allele G vs A (ref), Source cohort
  CARE OR: 1.37
rs1474396, allele A1 A (non-ref), A2 C (ref), source cohort, endpoint/model not given
  CARE OR: 1.35
rs1615197 allele G vs A (ref), Source CaseOnly
  CARE OR: 1.54
rs1884897 allele A vs G (ref), Source cohort
  CARE OR: 2.24
rs2008165 allele G vs A (ref), Source cohort
  CARE OR: 0.57
rs2023650 allele A vs G (ref), Source cohort
  CARE OR: 0.76
rs2060411 allele A vs G (ref), Source cohort
  CARE OR: 1.37
rs2104506 allele A vs C (ref), Source cohort
  CARE OR: 0.75
rs2129571, allele A1 A (non-ref), A2 G (ref), source cohort, endpoint/model not given
  CARE OR: 0.62
rs2145540 allele A vs G (ref), Source cohort
  CARE OR: 0.51
rs2268650 allele A vs G (ref), Source cohort
  CARE OR: 0.64
rs2273816 allele A vs G (ref), Source CaseOnly
  CARE OR: 1.56
rs2290193, allele A1 C (non-ref), A2 A (ref), source cohort, endpoint/model not given
  CARE OR: 0.53
rs2376764 allele A vs G (ref), Source Caseonly
  CARE OR: 0.61
rs2418412 allele G vs A (ref), Source cohort
  CARE OR: 2.20
rs2483641, allele A1 A (non-ref), A2 G (ref), source cohort, endpoint/model not given
  CARE OR: 0.65
rs2534752 allele G vs A (ref), Source cohort
  CARE OR: 1.60
rs2626130 allele G vs A (ref), Source cohort
  CARE OR: 1.29
rs2695026 allele A vs G (ref), Source Caseonly
  CARE OR: 0.70
rs2793086 allele C vs A (ref), Source cohort
  CARE OR: 0.61
rs2941528 allele A vs G (ref), Source CaseOnly
  CARE OR: 0.72
rs3000490 allele G vs A (ref), Source cohort
  CARE OR: 1.45
rs3213616 allele A vs G (ref), Source cohort
  CARE OR: 0.62
